This is an account of results in patent publication US20260306460A1, “COMPOSITION FOR REMOVING AND INHIBITING SENESCENT CELLS, AND USES THEREOF” (LIFECEUTIX CO., LTD., priority 2023, published 2026).

Experiment [1] deals with naturally aged C57BL6J mice. Format: in vivo, mouse. The conditions noted are these: mouse, in vivo.
In a further experiment the test system is naturally aged mice. As to the kind of experiment: Anti-aging evaluation in naturally aged mice, Example 31, Table 55.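 Note: Vehicle-dosed control mice received solution alone at matching volume, values compare test-compound-treated aged mice against that control.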 In kind it is in vivo, mouse.
A further experiment has as its system senescent cells. As to the kind of experiment: Viability of senescent cells (CellTiter-Glo), Example 17, Table 13. Particulars: Homo sapiens, read-out: Survival (%).
Experiment [2] deals with carbon tetrachloride-induced liver fibrosis mice. As to the kind of experiment: Carbon tetrachloride-induced liver fibrosis mice, Example 31, Table 57. Format: in vivo, mouse. Particulars: CCl4-induced liver fibrosis mice, untreated = 100%. An outline of the steps: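 Mice with induced hepatic fibrosis received either the test compound or, as controls, an equal volume of vehicle solution alone. Once dosing ended, liver tissue was harvested and total RNA was isolated. cDNA was synthesized from this RNA, and quantitative RT-PCR was run on it to measure hepatic mRNA levels of the fibrosis- and senescence-related genes.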

The next experiment deals with senescent A549 cells. Description: Viability of senescent A549 cells (CellTiter-Glo), Example 18, Table 15. The conditions noted are these: Homo sapiens, A549, read-out: Survival (%).
Experiment [3] relates to bleomycin-induced pulmonary fibrosis mice. Description: Bleomycin-induced pulmonary fibrosis mice, Example 31, Table 56. In kind it is in vivo, mouse. Particulars: untreated = 100%. An outline of the steps: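 After treatment with test compound or vehicle alone, lungs of bleomycin-induced pulmonary fibrosis mice were harvested. Total RNA extracted and gene expression quantified by qRT-PCR.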

Procedure for senescent A549 cells: Senescence-induced cancer cells treated with doxorubicin were treated with the test compound at designated concentrations, and cell viability was measured using the CellTiter-Glo Luminescent Cell Viability Assay (Promega).
Procedure for senescent cells: Cells induced to undergo senescence by doxorubicin treatment were treated with test compound at designated concentrations and measured using the CellTiter-Glo Luminescent Cell Viability Assay (Promega).

Turning to `COC(=O)[C@]12CCC(C)(C)C[C@H]1[C@H]1C(=O)C[C@@H]3[C@@]4(C)C=C(C#N)C(=O)C(C)(C)[C@@H]4CC[C@@]3(C)[C@]1(C)CC2` [LX-2301], the wound/damage healing improvement entry in experiment [1] is “damage treatment and recovery”.
The same measure, in the same setting: to `CC1(C)CC[C@]2(C(=O)NCC(F)(F)F)CC[C@]3(C)[C@H](C(=O)C[C@@H]4[C@@]5(C)C=C(C#N)C(=O)C(C)(C)[C@@H]5CC[C@]43C)[C@@H]2C1` [LX-2302, Dihydro-CDDO-Trifluoroethyl Amide] belongs “damage treatment and recovery”; to `CC1(C)CC[C@]2(NS(C)(=O)=O)CC[C@]3(C)[C@H](C(=O)C[C@@H]4[C@@]5(C)C=C(C#N)C(=O)C(C)(C)[C@@H]5CC[C@]43C)[C@@H]2C1` [LX-2306], “damage treatment and recovery”.
The same measure, in the same setting: to `COC(=O)C[C@]12CCC(C)(C)C[C@H]1[C@H]1C(=O)C[C@@H]3[C@@]4(C)C=C(C#N)C(=O)C(C)(C)[C@@H]4CC[C@@]3(C)[C@]1(C)CC2` [LX-2307] belongs “damage treatment and recovery”.
Same read-out and setting: to `C[C@]12C=C(C#N)C(=O)C3(CC=CC3)C1=CC[C@@H]1[C@@H]2CC[C@]2(C)C(=O)CC[C@@H]12` [LX-2308] belongs “damage treatment and recovery”; to `CC1(C)CC[C@]2(C(=O)NO)CC[C@]3(C)[C@H](C(=O)C[C@@H]4[C@@]5(C)C=C(C#N)C(=O)C(C)(C)[C@@H]5CC[C@]43C)[C@@H]2C1` [LX-2309], “damage treatment and recovery”; to `CONC(=O)[C@]12CCC(C)(C)C[C@H]1[C@H]1C(=O)C=C3[C@@]4(C)C=C(C#N)C(=O)C(C)(C)[C@@H]4CC[C@@]3(C)[C@]1(C)CC2` [LX-2310], “damage treatment and recovery”.
In the case of `C=C(C)[C@@H]1CC[C@]2(C(=O)NCC)CC[C@]3(C)[C@H](CCC4[C@@]5(C)C=C(C#N)C(=O)C(C)(C)[C@@H]5CC[C@]43C)[C@@H]12` (some centres unmarked) [LX-2311], the wound/damage healing improvement result in experiment [1] was “damage treatment and recovery”.
Same read-out and setting: to `C[C@@H]1C(=O)C(C#N)=C[C@]2(C)c3nn(C)c(-c4ccccc4)c3CC[C@@H]12` [LX-2312] belongs “damage treatment and recovery”; to `COc1nc(-c2cccnc2)nc2c1CC[C@H]1[C@H](C)C(=O)C(C#N)=C[C@]21C` [LX-2315], “damage treatment and recovery”.
In the case of `COC(=O)[C@]12CCC(C)(C)C[C@H]1[C@H]1C(=O)C=C3[C@@]4(C)C=C(C#N)C(=O)[C@@H](C)[C@@H]4CC[C@@]3(C)[C@]1(C)CC2` [LX-2316], the wound/damage healing improvement entry in experiment [1] was “damage treatment and recovery”.
With `C[C@@H]1C(=O)C(C#N)=C[C@]2(C)C3=CC(=O)[C@@H]4[C@@H]5CC(C)(C)CC[C@]5(CO)CC[C@@]4(C)[C@]3(C)CC[C@@H]12` [LX-2317], the wound/damage healing improvement entry in experiment [1] was “damage treatment and recovery”.
For the compound `CC1(C)CC[C@]2(CO)CC[C@]3(C)[C@H](C(=O)C=C4[C@@]5(C)[C@H]6O[C@@]6(C#N)C(=O)C(C)(C)[C@@H]5CC[C@]43C)[C@@H]2C1` [LX-2318], the wound/damage healing improvement result in experiment [1] is “damage treatment and recovery”.
For the compound `C[C@@H]1C(=O)[C@]2(C#N)O[C@@H]2[C@]2(C)C3=CC(=O)[C@@H]4[C@@H]5CC(C)(C)CC[C@]5(NC(=O)C(C)(F)F)CC[C@@]4(C)[C@]3(C)CC[C@@H]12` [LX-2319], in experiment [1], the wound/damage healing improvement result is “damage treatment and recovery”.
Still for that read-out and setting: for `Cc1noc([C@]23CCC(C)(C)C[C@H]2[C@H]2C(=O)C=C4[C@@]5(C)C=C(C#N)C(=O)C(C)(C)[C@@H]5CC[C@@]4(C)[C@]2(C)CC3)n1` [LX-2401] the value was “damage treatment and recovery”; for `CCNC(=O)CC[C@]12CCC(C)(C)C[C@H]1[C@H]1C(=O)C=C3[C@@]4(C)C=C(C#N)C(=O)C(C)(C)[C@@H]4CC[C@@]3(C)[C@]1(C)CC2` [LX-2402], “damage treatment and recovery”.
Still for that read-out and setting: to `CNC(=O)CC[C@]12CCC(C)(C)C[C@H]1[C@H]1C(=O)C=C3[C@@]4(C)C=C(C#N)C(=O)C(C)(C)[C@@H]4CC[C@@]3(C)[C@]1(C)CC2` [LX-2403] belongs “damage treatment and recovery”.
Turning to `CC1(C)CC[C@]2(CO)CC[C@@]3(C)[C@]4(C)CC[C@H]5C(C)(C)C(=O)C(C#N)=C[C@]5(C)C4=CC(=O)[C@]3(O)C2C1` (some centres unmarked) [LX-2405], in experiment [1], the wound/damage healing improvement result was “damage treatment and recovery”.
Still for that read-out and setting: for `CC1(C)CC[C@]2(C(N)=O)CC[C@@]3(C)[C@]4(C)CC[C@H]5C(C)(C)C(=O)C(C#N)=C[C@]5(C)C4=CC(=O)[C@]3(O)[C@@H]2C1` [LX-2406] the value was “damage treatment and recovery”.
The same measure, in the same setting: to `C[C@@H]1C(=O)C(C#N)=C[C@]2(c3ccccc3)c3c(c(-c4cccnc4)nn3C)CC[C@@H]12` [LX-2407, (5aS,6S,9aR)-1,6-dimethyl-7-oxo-9a-phenyl-3-(pyridin-3-yl)-4,5,5a,6,7,9a-hexahydro-1H-benzo[g]indazole-8-carbonitrile] belongs “damage treatment and recovery”; to `C[C@@H]1C(=O)C(C#N)=C[C@]2(c3ccccc3)c3c(c(-c4cncnc4)nn3C)CC[C@@H]12` [LX-2408], “damage treatment and recovery”; to `C[C@@H]1C(=O)C(C#N)=C[C@]2(C)c3nc(CCO)n(-c4ccccc4)c3CC[C@@H]12` [LX-2409], “damage treatment and recovery”.
Still for that read-out and setting: for `CC(O)[C@]1(C)C(=O)C(C#N)=C[C@]2(C)C3=CC(=O)[C@]45OC(=O)[C@@]6(CCC(C)(C)C[C@H]64)CC[C@@]5(C)[C@]3(C)CC[C@@H]12` (some centres unmarked) [LX-2501] the value was “damage treatment and recovery”; for `CCC[C@H]1C(=O)C(C#N)=C[C@@]2(C)c3nc(-c4cccc5ccccc45)nc(-c4ccccc4F)c3CC[C@H]12` [LX-2502], “damage treatment and recovery”.
Consider `Nc1ccc(/C=C/C(=O)NCc2cc3cc(-c4ccc(C(=O)N5CCC(F)(F)CC5)cc4)cc(-c4ccc(F)cc4)c3o2)cn1` [LX-8812, Padnarsertib], for which the “Femur Ctsk mRNA” value in the experiment with naturally aged mice (femur, untreated = 100%) worked out at 62%. The “Heart Sur2a mRNA” value in the experiment with naturally aged mice (heart, untreated = 1.0) is given as 2.0 fold. In addition, the “Joint Col2a1 mRNA” value in the experiment with naturally aged mice (joint, untreated = 1.0) came out at 2.6 fold. Besides, the “Kidney Agtr1a mRNA” value in the experiment on naturally aged mice (kidney, untreated = 100%) stood at 51%. In addition, in the experiment on naturally aged mice (liver, untreated = 100%), the “Liver IL6 mRNA” value came out at 53%, the “Liver MMP3 mRNA” value was found to be 42% and the “Liver p16 mRNA” value is 59%. Further, the “Open Field Test Time in Center” value in the experiment with naturally aged mice (open field test, untreated = 100%) is reported as 188%. Also, in the experiment on naturally aged mice (skin, untreated = 1.0), the “Skin Col1a1 mRNA” value is given as 3.4 Fold and the “Skin SDF1 mRNA” value was found to be 2.9 fold. Further, in the experiment with naturally aged mice (untreated 0.64 g), the “Muscle Mass” value was found to be 0.70 g. Moreover, the “Fat Mass” value with naturally aged mice (untreated 0.82 g) was found to be 0.96 g. In the experiment with naturally aged mice (untreated 83%), the Cataract incidence worked out at 54%. Besides, in the experiment with senescent cells, the viability at 1.1 µM is 94.6%, the viability at 10 µM stood at 49.3% and the viability at 30 µM came to 29.2%. Moreover, the “Liver p16 mRNA” value in experiment [2] (liver) is given as 63 (±3.9) %. The “Col1a1 mRNA” value in experiment [2] is reported as 64 (±3.1) %. In addition, in the experiment on senescent A549 cells, the viability at 1.1 µM is 100%, the viability at 10 µM is 61.6% and the viability at 30 µM is 24.9%. The “Lung p16 mRNA” value in experiment [3] (lung) was 67 (±5.6) %. In experiment [3], the “Col1a1 mRNA” value is recorded as 77 (±6.2) %.
